Tested on: human plasma
Test: determination of in-vitro anticoagulant effect in human plasma (APTT)
Type: biochemical
Conditions: healthy human plasma, 37°C for 3 min
Description: After centrifugation, the plasma sample was pipetted and frozen (-80°C) for later use.
A proper amount of a compound was weighed and prepared into a 10-100 mM stock solution using 100% of DMSO (the specific concentration of the stock solution was determined based on the properties of the compound); and then working solutions with various concentrations (specifically: 1 µM, 3 µM and 10 µM, respectively) were prepared from the stock solution using the healthy human plasma as a solution and thoroughly mixed. After incubation at 37°C for 3 min, the sample was placed on an instrument (model: CS-2000I) to determine APTT.
GraphPad Prism software was used for analysis to calculate the APTT prolongation rate at each concentration.

SMILES | APTT prolongation rate (%) (1 µM) | APTT prolongation rate (%) (3 µM) | APTT prolongation rate (%) (10 µM)
CC[C@@H](C(=O)Nc1ccc(C(=O)NC)c(Cl)c1)n1cc(OC)c(-c2cc(Cl)ccc2-n2cc(C(F)(F)F)nn2)cc1=O [Compound 3, (S)-2-chloro-4-(2-(4-(5-chloro-2-(4-(trifluoromethyl)-1H-1,2,3-triazol-1-yl)phenyl)-5-methoxy-2-oxopyridin-1(2H)-yl)butanamido)-N-methylbenzamide] | 48.2 | 66.5 | 92.0
CC[C@@H](C(=O)Nc1ccc(C(=O)OC)c(Cl)c1)n1cc(OC)c(-c2cc(Cl)ccc2-n2cc(C(F)(F)F)nn2)cc1=O [Compound 4, Methyl (S)-2-chloro-4-(2-(4-(5-chloro-2-(4-(trifluoromethyl)-1H-1,2,3-triazol-1-yl)phenyl)-5-methoxy-2-oxopyridin-1(2H)-yl)butanamido)benzoate] | 31.5 | 54.3 | 102.6
CC[C@@H](C(=O)Nc1ccc(C(N)=O)c(C(F)(F)F)c1)n1cc(OC)c(-c2cc(Cl)ccc2-n2cc(C(F)(F)F)nn2)cc1=O [Compound 7, (S)-4-(2-(4-(5-chloro-2-(4-(trifluoromethyl)-1H-1,2,3-triazol-1-yl)phenyl)-5-methoxy-2-oxopyridin-1(2H)-yl)butanamido)-2-(trifluoromethyl)benzamide] | 37.9 | 52.4 | 73.4
CC[C@@H](C(=O)Nc1ccc(C(N)=O)c(C(N)=O)c1)n1cc(OC)c(-c2cc(Cl)ccc2-n2cc(C(F)(F)F)nn2)cc1=O [Compound 8, (S)-4-(2-(4-(5-chloro-2-(4-(trifluoromethyl)-1H-1,2,3-triazol-1-yl)phenyl)-5-methoxy-2-oxopyridin-1(2H)-yl)butanamido)phthalamide] | 34.7 | 64.5 | 93.8
CC[C@@H](C(=O)Nc1ccc(C(N)=O)c(Cl)c1)n1cc(OC)c(-c2cc(Cl)ccc2-n2cc(Cl)nn2)cc1=O [Compound 10, (S)-2-chloro-4-(2-(4-(5-chloro-2-(4-chloro-1H-1,2,3-triazol-1-yl)phenyl)-5-methoxy-2-oxopyridin-1(2H)-yl)butanamido)benzamide] | 38.6 | 56.0 | 98.9
CC[C@@H](C(=O)Nc1ccc(C(N)=O)c(C(F)(F)F)c1)n1cc(OC)c(-c2cc(Cl)ccc2-n2cc(Cl)nn2)cc1=O [Compound 11, (S)-4-(2-(4-(5-chloro-2-(4-chloro-1H-1,2,3-triazol-1-yl)phenyl)-5-methoxy-2-oxopyridin-1(2H)-yl)butanamido)-2-(trifluoromethyl)benzamide] | 18.7 | 26.9 | 42.0
CC[C@@H](C(=O)Nc1ccc(C(N)=O)c(F)c1F)n1cc(OC)c(-c2cc(Cl)ccc2-n2cc(C(F)(F)F)nn2)cc1=O [Compound 12, (S)-4-(2-(4-(5-chloro-2-(4-(trifluoromethyl)-1H-1,2,3-triazol-1-yl)phenyl)-5-methoxy-2-oxopyridin-1(2H)-yl)butanamido)-2,3-difluorobenzamide] | 23.2 | 33.5 | 81.1
CC[C@@H](C(=O)Nc1c(Cl)cc(C(N)=O)cc1Cl)n1cc(OC)c(-c2cc(Cl)ccc2-n2cc(C(F)(F)F)nn2)cc1=O [Compound 15, (S)-3,5-dichloro-4-(2-(4-(5-chloro-2-(4-(trifluoromethyl)-1H-1,2,3-triazol-1-yl)phenyl)-5-methoxy-2-oxopyridin-1(2H)-yl)butanamido)benzamide] | 24.2 | 30.0 | 51.1

Source: EP4640678A1, “NOVEL OXO-PYRIDINE COMPOUND, PREPARATION METHOD THEREFOR, AND USE THEREOF” (Chengdu Shibeikang Biomedical Technology Co., Ltd., priority 2022, dated 2024)
